Data set [1] can be described thus: Percent complex determination, yttrium complexes (Sephadex C-25 cation exchange). It is filed as physicochemical. The conditions noted are these: for % Complex (10:1), Y: ligand/metal 10:1, pH 7.4. As to the method: Complexes were made by preparing a 0.0003M yttrium solution in water. (YCl3.6H2 O, 303.26 g/mole; Y(OAc)3, 12.1% H2 O). Radioactive YCl3 (Oakridge National Laboratories) was added to give the desired number of counts. Ten μl of ligand solution (at 0.03M) were added to 990 μl of the Y solution, giving a ligand-to-metal ratio of 1:1. (Ten times the amount of ligand solution was used for a 10:1 ligand to metal ratio.) The pH was then adjusted to 7.4 using microliter quantities of hydrochloric acid or sodium hydroxide. The solution was then tested for the amount of complexed yttrium using the cation exchange method given below.
(§1) A disposable 10 ml plastic (Biorad) column was filled with 1 to 2 ml of water-swelled Sephadex™ C-25 cation exchange resin. The water was pressure eluted to the top of the resin. Fifteen μl of the complex (or more if counts were low) were added to the top of the resin. This was followed by 2 ml of 4:1 (V:V) isotonic saline:conc. ammonium hydroxide solution as an eluent which was allowed to drip into a counting tube. This was also pressure eluted to the top of the resin. An additional 2 ml of the eluent were added and the column pressure eluted to remove all liquid. The dried resin was then placed in a third counting tube and the three tubes counted on a NaI well counter using a Canberra multichannel analyzer linked to a computer. The percent complex was determined by dividing the number of counts in the two elutions by the total counts in the elutions plus the column, all times 100. By this method, uncomplexed yttrium was retained on the column.

The nature of data set [2]: Complex study: percent yttrium complex after addition of excess metal (lability). It is filed as physicochemical. As to the method: as §1
The 1:1 complex of yttrium with 1-(p-aminobenzyl)diethylenetriaminepentaacetic acid (ABDTPA), a well known bifunctional chelant used in the literature, and with the ligand of Example 2 (Now Ex. XVI) and Example 12 (now Ex. XVII) were prepared using the techniques described earlier. Several 100 microliter aliquots were then withdrawn into separate centrifuge tubes. Excess metal was added such that the total volume change is minimized and the time noted. One-half hour after metal addition, the percent complex was determined by the Sephadex™ C-25 method and this was compared to the original amount of complex. The percent complex versus added metal gives an indication as to the lability of the ligand-metal complex. Results are given below and are compared to the EDTA-yttrium complex.

Data set [3] is described as follows: Challenge of antibody-complex conjugates with excess DTPA (inertness). It is filed as physicochemical. Conditions: 1000 fold molar excess DTPA, pH 7.4, one hour; CC-46 conjugate of Y-90 complex. As to the method: The purified antibody-complexes were added to HEPES buffer (N-2-hydroxyethylpiperazine-N'-2-ethanesulfonic acid) at pH 7.4 and treated with an appropriate amount of 0.1M DTPA solution (pH 7.4) to ensure a 1000 fold molar excess of DTPA over complex attached to antibody. After one hour an aliquot was removed and the antibody-complex conjugates were separated from low molecular weight substances using gel-filtration.

The nature of data set [4]: Percent complex determination, samarium complexes (Sephadex C-25 cation exchange). It is filed as physicochemical. Conditions: samarium. As to the method: as §1, with “100.” for “100. By this method, uncomplexed yttrium was retained on the column.”
Percent complex determination was made in the same manner as for the yttrium complex.

The conditions of data set [5]: complexes with Sc-46, Y-91, La-140 and Sm-153; chelant to metal 5:1; cited from earlier work.
Data set [6] can be described thus: In vivo biodistribution of chelates in rats (% dose in organs). The conditions noted are these: rat; for % Injected Dose in Liver: 2 hours after i.v. injection; for % dose in the spleen / % dose in the bone / % dose in the blood / % dose in the muscle: 2 hours; for % dose in the bone: 25 times % dose in a femur; for % dose in the blood: blood 6.5% of animal weight; for % dose in the muscle: muscle 46% of body weight.

Data set [7] relates to osteosarcoma in the right proximal humerus. In words: Treatment of a dog with osteosarcoma. Type of data set: in vivo. The conditions noted are these: Sm-153 complex, ligand 300 times molar excess; I.V. 0.95 mCi Sm-153 per Kg; one week after injection. As to the method: A dog was presented with an osteosarcoma in the right proximal humerus and walked with significant lameness. A complex was prepared using the ligand of Example 10 with a Sm-153 solution. The concentration of Sm was 3×10^-4 M and the ligand was used with a 300 times molar excess. The specific activity of the Sm-153 was 30 mCi/ml. The dog was given an I.V. injection of this complex containing 0.95 mCi of Sm-153 per Kg body weight of the dog.

Data set [8] is described as follows: Biodistribution in a rabbit. Type of data set: in vivo. The conditions noted are these: Y-90, ligand 10 times molar excess. As to the method: Muscle was calculated using 46% of body weight.
A rabbit was injected in the same manner as the rats with a formulation having Y-90 with Y at 3×10^-4 M and the ligand of Example 10 at 10 times molar excess.

Where [9] appears, read: ligand/metal ratio about 1:1 (* footnote).
Where [10] appears, read: metal/ligand molar ratio 250, one-half hour after metal addition.
Setting [11] is: metal/ligand molar ratio 500, one-half hour after metal addition.
Where [12] appears, read: Sm complex, ligand/metal about 300:1 (Examples D and E).
The mark [13] stands for this setting: Ho-166, ligand 300 times molar excess.
[14] abbreviates: Sm-153, ligand 10 times molar excess.
Setting [15] is: Sm-153, ligand 300 times molar excess.

We go through five compounds from patent US5696239A (The Dow Chemical Company, priority 1995, dated 1997).

Regarding `Nc1cc(CN(CCN(CC(=O)O)CC(=O)O)CC(=O)O)c(O)c(CN(CCN(CC(=O)O)CC(=O)O)CC(=O)O)c1` [Example 12], the “% Complex (10:1), Y” value in data set [1] turned out to be 99%. The “% Complex, Y” value in data set [1] (setting [9]) is reported as 98%. Moreover, the “% Complex” value in data set [2] (setting [10]) stood at 90%; in data set [2] (setting [11]), 79%. Besides, the “yttrium lost from antibody-complex conjugate” value in data set [3] is “approximately 39%”. For the same compound, in data set [4] (ligand/metal 10:1), the “% Complex (10:1), Sm” value worked out at 98%. The “% Complex, Sm” value in data set [4] (setting [9]) is given as 98%.
`O=C(O)CN(CC(=O)O)CC(=O)O` [NTA, nitrilotri-acetic acid, reference compound]: the “organ distribution of radioactivity” value in data set [5] was “high concentrations of radioactivity were observed in the liver, spleen, kidney, lung and bone”. For the same compound, in data set [6] (setting [12]), the “% Injected Dose in Liver” value is recorded as 8.6%.
Turning to `CC(=O)Nc1cc(C(C(=O)O)N(CC(=O)O)CC(=O)O)c(O)c(C(C(=O)O)N(CC(=O)O)CC(=O)O)c1` (centres unmarked) [Example 10, 2,6-BIS{[BIS(CARBOXYMETHYL)-AMINO](CARBOXY)METHYL}-4-(ACETAMIDO)PHENOL], the “dog's gait” value in data set [7] is recorded as “noticeably improved”. The “% Complex (10:1), Y” value in data set [1] came to 98%. In data set [8], this compound gave an activity in blood of 0.68%, an activity in bone of 59%, an activity in liver of 1.1% and an activity in muscle of 1.5%. In addition, in data set [8], the activity in spleen came out at 0.19%. For the same compound, in data set [6] (Ho complex, ligand 300 times molar excess), the “% Injected Dose in Liver” value stood at 0.26%. In data set [6] (setting [13]), the “% dose in the spleen” value was found to be 0.007%, the “% dose in the bone” value is 52.9%, the “% dose in the blood” value was 0.09% and the “% dose in the muscle” value was 1.1%. Besides, in data set [6] (Sm complex, ligand 300 times molar excess), the “% Injected Dose in Liver” value is on record as 0.12%. Besides, in data set [6] (Sm complex, ligand/metal 10:1), the “% Injected Dose in Liver” value is on record as 1.3%. Moreover, in data set [6] (setting [14]), the “% dose in the spleen” value is on record as 0.01%, the “% dose in the bone” value stood at 48.5%, the “% dose in the blood” value turned out to be 0.18% and the “% dose in the muscle” value worked out at 0.73%. Further, in data set [6] (setting [15]), the “% dose in the spleen” value came to 0.005%, the “% dose in the bone” value is 52.7%, the “% dose in the blood” value is reported as 0.05% and the “% dose in the muscle” value was found to be 0.23%. In addition, the “% Injected Dose in Liver” value in data set [6] (Y complex, ligand/metal 10:1) is 0.39%.
On to `O=C(O)CN(CCN(CC(=O)O)CC(=O)O)CC(=O)O` [EDTA, ethylenediaminetetraacetic acid], for which the “organ distribution of radioactivity” value in data set [5] is “high concentrations of radioactivity were observed in the liver, spleen, kidney, lung and bone”. Moreover, the results for the “% Complex” value in data set [2] (setting [10]) and in data set [2] (setting [11]) were 48% and 16%, respectively. Further, the “% Injected Dose in Liver” value in data set [6] (Sm complex, ligand/metal 5:1) turned out to be 8.4%; in data set [6] (setting [12]) it was 4.4%.
Turning to `Nc1ccc(CC(CN(CCN(CC(=O)O)CC(=O)O)CC(=O)O)N(CC(=O)O)CC(=O)O)cc1` (centres unmarked) [ABDTPA, 1-(p-aminobenzyl)diethylenetriaminepentaacetic acid], the “% Complex” value in data set [2] (metal/ligand molar ratio 10, one-half hour after metal addition) worked out at 95%; in data set [2] (setting [10]) it was 87%; in data set [2] (setting [11]), 70%. Further, the “yttrium lost from antibody-complex conjugate” value in data set [3] was “over 98%”.
